Tests used:
Assay in all cases: relative viability (nuclei count vs DMSO), 5 days (fraction); higher = more cells survive
CAL-12T = system: CAL-12T
How it was run: (§1)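 Lung cancer cell lines were seeded in 1536-well plates and dosed by pin tool the next day, with either a single drug or a fixed anchor-drug dose combined with five library-drug doses (not always all listed) spaced in √10 steps. Five days later, one step fixed the cells and stained their nuclei (final 0.05% Triton X-100, 1% formaldehyde, 1 ug/ml Hoechst), and nuclei were counted on 4× images. Relative viability is the nuclei count in treated wells divided by the count in vehicle wells, and each value is the median of duplicate plates.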

NCI-H596 = system: NCI-H596
How it was run: as §1

201T = system: 201T
How it was run: as §1

PC-3 [JPC-3] = system: PC-3 [JPC-3]
How it was run: as §1

NCI-H1650 = system: NCI-H1650
How it was run: as §1

NCI-H727 = system: NCI-H727
How it was run: as §1

NCI-H520 = system: NCI-H520
How it was run: as §1

NCI-H460 = system: NCI-H460
How it was run: as §1

NCI-H1944 = system: NCI-H1944
How it was run: as §1

NCI-H650 = system: NCI-H650
How it was run: as §1

NCI-H2087 = system: NCI-H2087
How it was run: as §1

A-427 = system: A-427
How it was run: as §1

BEN = system: BEN
How it was run: as §1

H3255 = system: H3255
How it was run: as §1

NCI-H1651 = system: NCI-H1651
How it was run: as §1

ABC-1 = system: ABC-1
How it was run: as §1

LCLC-97TM1 = system: LCLC-97TM1
How it was run: as §1

NCI-H1915 = system: NCI-H1915
How it was run: as §1

NCI-H2023 = system: NCI-H2023
How it was run: as §1

NCI-H661 = system: NCI-H661
How it was run: as §1

LC-2-ad = system: LC-2-ad
How it was run: as §1

NCI-H441 = system: NCI-H441
How it was run: as §1

Question: O=c1cc(N2CCOCC2)oc2c(-c3cccc4c3sc3ccccc34)cccc12 + O=C(CCCCCCC(=O)Nc1ccccc1)NO [Vorinostat] (partner 1 µM) was tested. Which relative viability (CAL-12T; first compound 0.01 µM) did it give?
Answer: 0.967

Question: And the relative viability (CAL-12T; first compound 0.03162 µM)?
Answer: 0.828

Question: And the relative viability (CAL-12T; first compound 0.1 µM)?
Answer: 0.727

Question: And the relative viability (CAL-12T; first compound 0.3162 µM)?
Answer: 0.748

Question: What about the relative viability (CAL-12T; first compound 1 µM) of the same compound?
Answer: 0.618

Question: And the relative viability (NCI-H596; first compound 0.01 µM)?
Answer: 0.564

Question: What about the relative viability (NCI-H596; first compound 0.03162 µM) of the same compound?
Answer: 0.586

Question: And the relative viability (NCI-H596; first compound 0.1 µM)?
Answer: 0.581

Question: And the relative viability (NCI-H596; first compound 0.3162 µM)?
Answer: 0.626

Question: What about the relative viability (NCI-H596; first compound 1 µM) of the same compound?
Answer: 0.573

Question: What about the relative viability (201T; first compound 0.01 µM) of the same compound?
Answer: 0.961

Question: And the relative viability (201T; first compound 0.03162 µM)?
Answer: 0.95

Question: And the relative viability (201T; first compound 0.1 µM)?
Answer: 0.982

Question: What about the relative viability (201T; first compound 0.3162 µM) of the same compound?
Answer: 0.959

Question: What about the relative viability (201T; first compound 1 µM) of the same compound?
Answer: 0.915

Question: What about the relative viability (PC-3 [JPC-3]; first compound 0.01 µM) of the same compound?
Answer: 0.76

Question: What about the relative viability (PC-3 [JPC-3]; first compound 0.03162 µM) of the same compound?
Answer: 0.774

Question: What about the relative viability (PC-3 [JPC-3]; first compound 0.1 µM) of the same compound?
Answer: 0.859

Question: And the relative viability (PC-3 [JPC-3]; first compound 0.3162 µM)?
Answer: 0.896

Question: What about the relative viability (PC-3 [JPC-3]; first compound 1 µM) of the same compound?
Answer: 0.401

Question: And the relative viability (NCI-H1650; first compound 0.01 µM)?
Answer: 0.485

Question: What about the relative viability (NCI-H1650; first compound 0.03162 µM) of the same compound?
Answer: 0.692

Question: What about the relative viability (NCI-H1650; first compound 0.1 µM) of the same compound?
Answer: 0.547

Question: What about the relative viability (NCI-H1650; first compound 0.3162 µM) of the same compound?
Answer: 0.631

Question: What about the relative viability (NCI-H1650; first compound 1 µM) of the same compound?
Answer: 0.49

Question: And the relative viability (NCI-H727; first compound 0.01 µM)?
Answer: 1.12

Question: What about the relative viability (NCI-H727; first compound 0.03162 µM) of the same compound?
Answer: 1.31

Question: What about the relative viability (NCI-H727; first compound 0.1 µM) of the same compound?
Answer: 0.626

Question: And the relative viability (NCI-H727; first compound 0.3162 µM)?
Answer: 1.04

Question: And the relative viability (NCI-H727; first compound 1 µM)?
Answer: 1.19

Question: What about the relative viability (NCI-H520; first compound 0.01 µM) of the same compound?
Answer: 0.775

Question: What about the relative viability (NCI-H520; first compound 0.03162 µM) of the same compound?
Answer: 0.755

Question: And the relative viability (NCI-H520; first compound 0.1 µM)?
Answer: 0.689

Question: And the relative viability (NCI-H520; first compound 0.3162 µM)?
Answer: 0.728

Question: And the relative viability (NCI-H520; first compound 1 µM)?
Answer: 0.794

Question: And the relative viability (NCI-H460; first compound 0.01 µM)?
Answer: 0.68

Question: What about the relative viability (NCI-H460; first compound 0.03162 µM) of the same compound?
Answer: 0.773

Question: What about the relative viability (NCI-H460; first compound 0.1 µM) of the same compound?
Answer: 0.957

Question: What about the relative viability (NCI-H460; first compound 0.3162 µM) of the same compound?
Answer: 0.655

Question: And the relative viability (NCI-H460; first compound 1 µM)?
Answer: 0.75

Question: What about the relative viability (NCI-H1944; first compound 0.01 µM) of the same compound?
Answer: 0.529

Question: And the relative viability (NCI-H1944; first compound 0.03162 µM)?
Answer: 0.612

Question: And the relative viability (NCI-H1944; first compound 0.1 µM)?
Answer: 0.503

Question: And the relative viability (NCI-H1944; first compound 0.3162 µM)?
Answer: 0.48

Question: And the relative viability (NCI-H1944; first compound 1 µM)?
Answer: 0.616

Question: And the relative viability (NCI-H650; first compound 0.01 µM)?
Answer: 0.537

Question: What about the relative viability (NCI-H650; first compound 0.03162 µM) of the same compound?
Answer: 0.412

Question: And the relative viability (NCI-H650; first compound 0.3162 µM)?
Answer: 0.496

Question: And the relative viability (NCI-H650; first compound 1 µM)?
Answer: 0.402

Question: And the relative viability (NCI-H2087; first compound 0.01 µM)?
Answer: 0.474

Question: And the relative viability (NCI-H2087; first compound 0.03162 µM)?
Answer: 0.637

Question: What about the relative viability (NCI-H2087; first compound 0.1 µM) of the same compound?
Answer: 0.8

Question: And the relative viability (NCI-H2087; first compound 0.3162 µM)?
Answer: 0.64

Question: And the relative viability (NCI-H2087; first compound 1 µM)?
Answer: 0.745

Question: And the relative viability (A-427; first compound 0.01 µM)?
Answer: 0.844

Question: What about the relative viability (A-427; first compound 0.03162 µM) of the same compound?
Answer: 0.95

Question: What about the relative viability (A-427; first compound 0.1 µM) of the same compound?
Answer: 0.843

Question: And the relative viability (A-427; first compound 0.3162 µM)?
Answer: 0.82

Question: And the relative viability (A-427; first compound 1 µM)?
Answer: 0.86

Question: And the relative viability (BEN; first compound 0.01 µM)?
Answer: 0.56

Question: And the relative viability (BEN; first compound 0.03162 µM)?
Answer: 0.627

Question: And the relative viability (BEN; first compound 0.1 µM)?
Answer: 0.49

Question: And the relative viability (BEN; first compound 0.3162 µM)?
Answer: 0.583

Question: And the relative viability (BEN; first compound 1 µM)?
Answer: 0.655

Question: What about the relative viability (H3255; first compound 0.01 µM) of the same compound?
Answer: 0.83

Question: What about the relative viability (H3255; first compound 0.03162 µM) of the same compound?
Answer: 0.837

Question: And the relative viability (H3255; first compound 0.1 µM)?
Answer: 0.759

Question: What about the relative viability (H3255; first compound 0.3162 µM) of the same compound?
Answer: 0.765

Question: What about the relative viability (H3255; first compound 1 µM) of the same compound?
Answer: 0.558

Question: And the relative viability (NCI-H1651; first compound 0.01 µM)?
Answer: 0.55

Question: And the relative viability (NCI-H1651; first compound 0.03162 µM)?
Answer: 0.556

Question: What about the relative viability (NCI-H1651; first compound 0.1 µM) of the same compound?
Answer: 0.528

Question: And the relative viability (NCI-H1651; first compound 0.3162 µM)?
Answer: 0.567

Question: And the relative viability (NCI-H1651; first compound 1 µM)?
Answer: 0.489

Question: And the relative viability (ABC-1; first compound 0.01 µM)?
Answer: 1.36

Question: And the relative viability (ABC-1; first compound 0.03162 µM)?
Answer: 1.58

Question: What about the relative viability (ABC-1; first compound 0.1 µM) of the same compound?
Answer: 1.31

Question: What about the relative viability (ABC-1; first compound 0.3162 µM) of the same compound?
Answer: 1.17

Question: And the relative viability (ABC-1; first compound 1 µM)?
Answer: 1.02

Question: What about the relative viability (LCLC-97TM1; first compound 0.01 µM) of the same compound?
Answer: 0.699

Question: What about the relative viability (LCLC-97TM1; first compound 0.03162 µM) of the same compound?
Answer: 0.725

Question: And the relative viability (LCLC-97TM1; first compound 0.1 µM)?
Answer: 0.3

Question: What about the relative viability (LCLC-97TM1; first compound 0.3162 µM) of the same compound?
Answer: 0.66

Question: What about the relative viability (LCLC-97TM1; first compound 1 µM) of the same compound?
Answer: 0.784

Question: And the relative viability (NCI-H1915; first compound 0.01 µM)?
Answer: 0.497

Question: What about the relative viability (NCI-H1915; first compound 0.03162 µM) of the same compound?
Answer: 0.596

Question: What about the relative viability (NCI-H1915; first compound 0.1 µM) of the same compound?
Answer: 0.521

Question: And the relative viability (NCI-H1915; first compound 0.3162 µM)?
Answer: 0.516

Question: And the relative viability (NCI-H1915; first compound 1 µM)?
Answer: 0.544

Question: And the relative viability (NCI-H2023; first compound 0.01 µM)?
Answer: 0.733

Question: What about the relative viability (NCI-H2023; first compound 0.03162 µM) of the same compound?
Answer: 0.76

Question: What about the relative viability (NCI-H2023; first compound 0.1 µM) of the same compound?
Answer: 0.786

Question: What about the relative viability (NCI-H2023; first compound 0.3162 µM) of the same compound?
Answer: 0.55

Question: And the relative viability (NCI-H2023; first compound 1 µM)?
Answer: 0.677

Question: And the relative viability (NCI-H661; first compound 0.01 µM)?
Answer: 0.761

Question: And the relative viability (NCI-H661; first compound 0.03162 µM)?
Answer: 0.793

Question: What about the relative viability (NCI-H661; first compound 0.1 µM) of the same compound?
Answer: 0.836

Question: What about the relative viability (NCI-H661; first compound 0.3162 µM) of the same compound?
Answer: 0.79

Question: What about the relative viability (NCI-H661; first compound 1 µM) of the same compound?
Answer: 0.765

Question: What about the relative viability (LC-2-ad; first compound 0.01 µM) of the same compound?
Answer: 0.703

Question: What about the relative viability (LC-2-ad; first compound 0.03162 µM) of the same compound?
Answer: 0.72

Question: What about the relative viability (LC-2-ad; first compound 0.1 µM) of the same compound?
Answer: 0.798

Question: And the relative viability (LC-2-ad; first compound 0.3162 µM)?
Answer: 0.647

Question: What about the relative viability (LC-2-ad; first compound 1 µM) of the same compound?
Answer: 0.741

Question: What about the relative viability (NCI-H441; first compound 0.01 µM) of the same compound?
Answer: 0.731

Question: And the relative viability (NCI-H441; first compound 0.03162 µM)?
Answer: 0.704

Question: And the relative viability (NCI-H441; first compound 0.1 µM)?
Answer: 1.09

Question: What about the relative viability (NCI-H441; first compound 0.3162 µM) of the same compound?
Answer: 0.829

Question: What about the relative viability (NCI-H441; first compound 1 µM) of the same compound?
Answer: 0.724

Reference: the supplement of paper PMC10307832
